Experimental findings from patent US20260055103A1, “2,3,4,9-TETRAHYDRO-1H-PYRIDO[3,4-B]INDOLE DERIVATIVES AS ESTROGEN RECEPTOR MODULATORS FOR THE TREATMENT OF CANCER” (Olema Pharmaceuticals, Inc., priority 2022, published 2026) are described below.

The structures appear in SMILES notation.

The target of the test is T1, estrogen receptor (Homo sapiens, UniProt P03372).
T1 construct: endogenous in cells; host or cells: ECC-1 cells
T1 sequence (P03372 1-595): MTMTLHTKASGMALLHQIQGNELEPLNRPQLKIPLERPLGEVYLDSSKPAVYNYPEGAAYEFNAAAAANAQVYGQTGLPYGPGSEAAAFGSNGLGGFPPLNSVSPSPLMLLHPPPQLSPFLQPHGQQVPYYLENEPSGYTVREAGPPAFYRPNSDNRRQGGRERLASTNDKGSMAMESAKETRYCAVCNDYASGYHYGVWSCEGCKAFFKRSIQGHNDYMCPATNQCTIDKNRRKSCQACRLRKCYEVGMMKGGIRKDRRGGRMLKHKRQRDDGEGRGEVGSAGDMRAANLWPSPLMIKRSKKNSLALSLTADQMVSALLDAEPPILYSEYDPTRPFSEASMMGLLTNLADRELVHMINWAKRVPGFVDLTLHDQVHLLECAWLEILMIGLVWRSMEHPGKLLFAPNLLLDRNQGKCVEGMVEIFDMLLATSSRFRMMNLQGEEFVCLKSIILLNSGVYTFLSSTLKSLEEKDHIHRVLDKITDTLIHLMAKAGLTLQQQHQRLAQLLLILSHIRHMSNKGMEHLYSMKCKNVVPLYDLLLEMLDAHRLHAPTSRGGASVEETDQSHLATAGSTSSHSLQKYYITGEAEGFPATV
The test can be described thus: Alkaline phosphatase (AP) assay in ECC-1 cells, agonist mode (no E2) and antagonist mode (500 pM E2). As to conditions: 3 days, AP activity normalized to 500 pM E2 alone, agonist mode without E2, antagonist mode with 500 pM E2. The class given is cell-based. An outline of the steps:
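ECC-1 cells in hormone-depleted medium treated 3 days with compound alone (agonist mode) or with 500 pM E2 (antagonist mode). Alkaline phosphatase read by p-nitrophenyl phosphate hydrolysis, 40 min at 42° C, A405. Activity normalized to 500 pM E2 alone.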
Turning to `C[C@@H]1Cc2c([nH]c3ccccc23)[C@@H](c2ncc(CC3CN(CCCF)C3)s2)N1CC(F)(F)CO` [Example I-44, 2,2-difluoro-3-[(1S,3R)-1-[5-[[1-(3-fluoropropyl)azetidin-3-yl]methyl]thiazol-2-yl]-3-methyl-1,3,4,9-tetrahydropyrido[3,4-b]indol-2-yl]propan-1-ol], the “Activity (estrogen receptor modulation, agonism and antagonism)” value (“Activity” for short) is “++ (estrogen receptor antagonism having (i) between 10% and 80% increase in the E2-normalized signal in the AP assay (agonist mode) and (ii) between 10% and 80% reduction in the E2-normalized signal in the AP assay (antagonist mode))”. Take `Cc1cc(CC2CN(CCCF)C2)sc1[C@@H]1c2[nH]c3ccccc3c2C[C@@H](C)N1CC(C)(C)F` [Example I-6, 3-({5-[(1S,3R)-2-(2-fluoro-2-methylpropyl)-3-methyl-1H,2H,3H,4H,9H-pyrido[3,4-b]indol-1-yl]-4-methylthiophen-2-yl}methyl)-1-(3-fluoropropyl)azetidine]: the “Activity” value was “++ (estrogen receptor antagonism having (i) between 10% and 80% increase in the E2-normalized signal in the AP assay (agonist mode) and (ii) between 10% and 80% reduction in the E2-normalized signal in the AP assay (antagonist mode))”. Take `C[C@@H]1Cc2c([nH]c3ccccc23)[C@@H](c2cc(F)c(CC3CN(CCCF)C3)s2)N1CC(C)(C)F` [Example I-13, (1S,3R)-2-(2-fluoro-2-methylpropyl)-1-(4-fluoro-5-((1-(3-fluoropropyl)azetidin-3-yl)methyl)thiophen-2-yl)-3-methyl-2,3,4,9-tetrahydro-1H-pyrido[3,4-b]indole]: the “Activity” value was “++ (estrogen receptor antagonism having (i) between 10% and 80% increase in the E2-normalized signal in the AP assay (agonist mode) and (ii) between 10% and 80% reduction in the E2-normalized signal in the AP assay (antagonist mode))”. Take `CCCN1CC(Cc2cnc([C@@H]3c4[nH]c5ccccc5c4C[C@@H](C)N3CC(C)(C)F)s2)C1` [Example I-3, 2-[(1S,3R)-2-(2-fluoro-2-methylpropyl)-3-methyl-1H,2H,3H,4H,9H-pyrido[3,4-b]indol-1-yl]-5-[(1-propylazetidin-3-yl)methyl]-1,3-thiazole]: the “Activity” value was “+ (estrogen receptor agonism having (i) at least 80% increase in the E2-normalized signal in the AP assay (agonist mode) and (ii) no more than 80% reduction in the E2-normalized signal in the AP assay (antagonist mode))”.

With `CCCN1CC(Cc2sc([C@@H]3c4[nH]c5ccccc5c4C[C@@H](C)N3CC(C)(C)F)cc2F)C1` [Example I-10, (1S,3R)-2-(2-fluoro-2-methylpropyl)-1-(4-fluoro-5-((1-propylazetidin-3-yl)methyl)thiophen-2-yl)-3-methyl-2,3,4,9-tetrahydro-1H-pyrido[3,4-b]indole], the “Activity” value was “++ (estrogen receptor antagonism having (i) between 10% and 80% increase in the E2-normalized signal in the AP assay (agonist mode) and (ii) between 10% and 80% reduction in the E2-normalized signal in the AP assay (antagonist mode))”. With `Cc1cc([C@@H]2c3[nH]c4ccccc4c3C[C@@H](C)N2CC(C)(C)F)sc1CC1CN(CCCF)C1` [Example I-9, (1S,3R)-2-(2-fluoro-2-methylpropyl)-1-(5-((1-(3-fluoropropyl)azetidin-3-yl)methyl)-4-methylthiophen-2-yl)-3-methyl-2,3,4,9-tetrahydro-1H-pyrido[3,4-b]indole] the entry was “++ (estrogen receptor antagonism having (i) between 10% and 80% increase in the E2-normalized signal in the AP assay (agonist mode) and (ii) between 10% and 80% reduction in the E2-normalized signal in the AP assay (antagonist mode))”; with `C[C@@H]1Cc2c([nH]c3ccccc23)[C@@H](c2cnc(C[C@H]3CCN(CCCF)C3)s2)N1CC(F)F` [Example I-30, 5-((1S,3R)-2-(2,2-difluoroethyl)-3-methyl-2,3,4,9-tetrahydro-1H-pyrido[3,4-b]indol-1-yl)-2-(((R)-1-(3-fluoropropyl)pyrrolidin-3-yl)methyl)thiazole], “++ (estrogen receptor antagonism having (i) between 10% and 80% increase in the E2-normalized signal in the AP assay (agonist mode) and (ii) between 10% and 80% reduction in the E2-normalized signal in the AP assay (antagonist mode))”.

Take `C[C@@H]1Cc2c([nH]c3ccccc23)[C@@H](c2cnc(N[C@@H]3CN(CCCF)C[C@@H]3F)s2)N1CC(F)(F)CO` [Example I-72, 2,2-difluoro-3-[(1S,3R)-1-[2-[[(3R,4S)-4-fluoro-1-(3-fluoropropyl)pyrrolidin-3-yl]amino]thiazol-5-yl]-3-methyl-1,3,4,9-tetrahydropyrido[3,4-b]indol-2-yl]propan-1-ol]: the “Activity” value was “++ (estrogen receptor antagonism having (i) between 10% and 80% increase in the E2-normalized signal in the AP assay (agonist mode) and (ii) between 10% and 80% reduction in the E2-normalized signal in the AP assay (antagonist mode))”. With `C#CCN1CC(Cc2ccc([C@@H]3c4[nH]c5ccccc5c4C[C@@H](C)N3CC(C)(C)F)s2)C1` [Example I-58, (1S,3R)-2-(2-fluoro-2-methyl-propyl)-3-methyl-1-[5-[(1-prop-2-ynylazetidin-3-yl)methyl]-2-thienyl]-1,3,4,9-tetrahydropyrido[3,4-b]indole] the entry was “+ (estrogen receptor agonism having (i) at least 80% increase in the E2-normalized signal in the AP assay (agonist mode) and (ii) no more than 80% reduction in the E2-normalized signal in the AP assay (antagonist mode))”. On to `C[C@@H]1Cc2c([nH]c3ccccc23)[C@@H](c2cnc(C[C@H]3CCN(CCCF)C3)s2)N1CC(F)(F)F` [Example I-33, 2-(((R)-1-(3-fluoropropyl)pyrrolidin-3-yl)methyl)-5-((1S,3R)-3-methyl-2-(2,2,2-trifluoroethyl)-2,3,4,9-tetrahydro-1H-pyrido[3,4-b]indol-1-yl)thiazole], for which the “Activity” value was “++ (estrogen receptor antagonism having (i) between 10% and 80% increase in the E2-normalized signal in the AP assay (agonist mode) and (ii) between 10% and 80% reduction in the E2-normalized signal in the AP assay (antagonist mode))”.

With `C[C@@H]1Cc2c([nH]c3ccccc23)[C@@H](c2cnc(N[C@H]3CN(CCCF)C[C@H]3F)s2)N1CC(F)(F)CO` [Example I-64, 2,2-difluoro-3-[(1S,3R)-1-[2-[[(3S,4R)-4-fluoro-1-(3-fluoropropyl)pyrrolidin-3-yl]amino]thiazol-5-yl]-3-methyl-1,3,4,9-tetrahydropyrido[3,4-b]indol-2-yl]propan-1-ol], the “Activity” value is “++ (estrogen receptor antagonism having (i) between 10% and 80% increase in the E2-normalized signal in the AP assay (agonist mode) and (ii) between 10% and 80% reduction in the E2-normalized signal in the AP assay (antagonist mode))”. For the compound `CC1CN(CCCc2ccc([C@@H]3c4[nH]c5ccccc5c4C[C@@H](C)N3CC(C)(C)F)s2)C1` [Example I-19, 1-(3-{5-[(1S,3R)-2-(2-fluoro-2-methylpropyl)-3-methyl-1H,2H,3H,4H,9H-pyrido[3,4-b]indol-1-yl]thiophen-2-yl}propyl)-3-methylazetidine], the “Activity” value was “++ (estrogen receptor antagonism having (i) between 10% and 80% increase in the E2-normalized signal in the AP assay (agonist mode) and (ii) between 10% and 80% reduction in the E2-normalized signal in the AP assay (antagonist mode))”.
